22 compounds from patent publication US6509369B2, “Anti-inflammatory compounds” (Ortho-McNeil Pharmaceutical, Inc., priority 1997, dated 2003) can be followed below.

Each structure is given as a SMILES string.

The target in assay [1] is T1, human glucocorticoid receptor (hGR) (Homo sapiens, UniProt P04150).
T1 construct: made in house; host or cells: Sf21 insect cells infected with baculovirus hGR, OR IM9 lymphoblast cell line (endogenous hGR)
T1 sequence (P04150 1-777): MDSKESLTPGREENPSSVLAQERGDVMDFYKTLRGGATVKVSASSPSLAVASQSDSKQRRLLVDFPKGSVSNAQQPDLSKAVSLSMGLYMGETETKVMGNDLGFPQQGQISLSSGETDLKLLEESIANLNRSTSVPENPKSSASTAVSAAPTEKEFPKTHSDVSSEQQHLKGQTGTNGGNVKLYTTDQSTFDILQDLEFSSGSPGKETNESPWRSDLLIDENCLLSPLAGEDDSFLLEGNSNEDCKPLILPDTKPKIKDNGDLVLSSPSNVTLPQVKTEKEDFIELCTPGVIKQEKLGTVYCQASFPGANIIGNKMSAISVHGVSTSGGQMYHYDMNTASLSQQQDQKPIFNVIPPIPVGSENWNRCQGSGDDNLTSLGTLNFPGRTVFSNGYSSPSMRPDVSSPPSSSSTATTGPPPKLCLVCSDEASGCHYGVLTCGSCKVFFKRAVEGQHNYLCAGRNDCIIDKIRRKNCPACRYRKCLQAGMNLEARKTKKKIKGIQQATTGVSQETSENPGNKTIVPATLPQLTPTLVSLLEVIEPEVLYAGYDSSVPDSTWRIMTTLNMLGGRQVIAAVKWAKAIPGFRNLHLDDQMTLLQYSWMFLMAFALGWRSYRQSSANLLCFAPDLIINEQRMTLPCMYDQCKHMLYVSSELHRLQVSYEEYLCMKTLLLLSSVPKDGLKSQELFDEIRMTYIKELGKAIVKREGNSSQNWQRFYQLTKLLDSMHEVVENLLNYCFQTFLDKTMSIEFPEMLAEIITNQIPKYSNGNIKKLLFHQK
The experiment in a line: human glucocorticoid receptor binding assay (displacement of 3(H) Triamcinolone acetonide). On the procedure: A human glucocorticoid receptor binding assay was carried out to determine the extent to which the compounds of this invention have the ability to bind to human glucocorticoid receptors. This binding ability may be indicative of the antiinflammatory activity of the compound. The test was carried out as follows.
Human glucocorticoid receptors were prepared from either insect cells (Sf21) infected with baculovirus hGR or from a lymphoblast cell line which expresses high levels of endogenous hGR (IM9). The receptor binding reactions, with or without test compounds, were set up in 96-well microtiter plates which were previously siliconized with SIGMACOTE™, a chlorinated organopolysiloxane in heptane. The binding components, 3(H) Triamcinolone acetonide (TAA), glycerol/molybdate-containing buffer and unlabeled compounds were added to the wells using a combination of BIOMEK laboratory automation system and repeat pipettes. After four hours of incubation, the samples were precipitated with polyethylene glycol and filtered through Whatman GF/F paper using a TOMTEK cell harvester. The filter mate with 96 samples were bound to a solid-phase scintillant and directly counted in a BETAPLATE counter. […] The activity of test compounds to displace 3(H) TAA binding to hGR is also expressed as percent inhibition at 1 μM.

Assay [2] concerns human progesterone receptor (hPR). The experiment in a line: human progesterone receptor binding assay (displacement of 3(H) R5020 Promegestone). Here is the method: A human progesterone receptor binding assay was performed in order to determine selectivity of the compounds, as follows. Human progesterone receptors were prepared from either insect cells (SF21) infected with baculovirus hPR A, or from a breast cancer cell line, T47D, which expresses high levels of endogenous hPR. The receptor binding reactions, with or without test compounds, were set up in 96-well microtiter plates which were previously siliconized with SIGMACOTE. The binding components, 3(H) R5020 Promegestone, a high affinity ligand for the progesterone receptors, glycerol/molybdate-containing buffer and unlabeled compounds were added to the wells using a combination of BIOMEK laboratory automation system and repeat pipettes. After overnight incubation, the samples were precipitated with polyethylene glycol and filtered through Whatman GF/F paper using a TOMTEK cell harvester. The filter mate with 96 samples were bound to a solid-phase scintillant and directly counted in the BETAPLATE counter. Only those compounds that were active in the human glucocorticoid receptor assay set forth in Example 30 were used for progesterone receptor binding to determine cross-reactivity profiles, if any. The activity of test compounds to displace 3(H) R5020 binding to hPR is expressed as percent inhibition at the two concentrations, 10^−6 and 10^−5 Molar.

As usually defined, the IC50 is the concentration needed to halve the response being measured. Take `O=C(Cc1ccccc1)NCC(c1ccccc1)C1c2ccccc2-c2ccccc21` (centres unmarked) [Compound 66]: in assay [1], the 50% inhibitory concentration (IC50) is 888 nM. In addition, the “hPR % inh 10 μM” value in assay [2] is recorded as 18%.
Turning to `CC(C)C(=O)NCC1(c2ccccc2)CC1(c1ccccc1)c1ccccc1` (centres unmarked) [Compound 84], in assay [1], the IC50 was 612 nM. The “hPR % inh 10 μM” value in assay [2] worked out at 15.3%.
The corresponding values for `O=S(=O)(NCC(c1ccccc1)C(c1ccccc1)c1ccccc1)c1cccs1` (centres unmarked) [Compound 40] are 151 nM and 22%.
As to `O=C(Cc1ccccn1)NCC(c1ccccc1)C(c1ccccc1)c1ccccc1` (centres unmarked) [Compound 49], the IC50 in assay [1] worked out at 200 nM. Further, in assay [2], the “hPR % inh 10 μM” value is 11%.
With `O=C(Cc1ccccc1)NCC1(c2ccccc2)CC1(c1ccccc1)c1ccccc1` (centres unmarked) [Compound 78], the IC50 in assay [1] turned out to be 1200 nM. The “hPR % inh 10 μM” value in assay [2] is 6%.
The corresponding values for `O=C(NCC1(c2ccccc2)CC1(c1ccccc1)c1ccccc1)C(c1ccccc1)c1ccccc1` (centres unmarked) [Compound 82] are 510 nM and −20.4%.
`COc1ccc(CC(=O)NCC(c2ccccc2)C(c2ccccc2)c2ccccc2)cc1OC` (centres unmarked) [Compound 7]: the IC50 in assay [1] stood at 910 nM. Further, the “hPR % inh 10 μM” value in assay [2] is recorded as 11.6%.
As to `O=C(Cc1c[nH]c2ccccc12)NCC(c1ccccc1)C(c1ccccc1)c1ccccc1` (centres unmarked) [Compound 47], the IC50 in assay [1] worked out at 416 nM. In assay [2], the “hPR % inh 10 μM” value stood at 17%.
The corresponding values for `O=C(Cc1cccs1)NCC(c1ccccc1)C1c2ccccc2-c2ccccc21` (centres unmarked) [Compound 71] are 820 nM and 16%.
The corresponding values for `O=C(Cc1cccc(C(F)(F)F)c1)NCC(c1ccccc1)C(c1ccccc1)c1ccccc1` (centres unmarked) [Compound 11] are 830 nM and 20%.
Take `O=C(NCC(c1ccccc1)C(c1ccccc1)c1ccccc1)c1ccsc1` (centres unmarked) [Compound 42]: the IC50 in assay [1] came out at 68 nM. The “hPR % inh 10 μM” value in assay [2] is 18%.
Turning to `O=C(Cc1cccs1)NCC(c1ccc(Cl)cc1)C(c1ccccc1)c1ccccc1` (centres unmarked) [Compound 34], the IC50 in assay [1] was 21 nM. For the same compound, in assay [2], the “hPR % inh 10 μM” value was 17%.
The corresponding values for `O=C(NCC(c1ccccc1)C(c1ccccc1)c1ccccc1)c1cccs1` (centres unmarked) [Compound 45] are 31 nM and 5%.
The matching figures for `O=C(NCC1(c2ccccc2)CC1(c1ccccc1)c1ccccc1)Nc1ccccc1` (centres unmarked) [Compound 92]: 1490 nM and −1%.
The matching figures for `O=C(CCCc1ccccc1)NCC(c1ccccc1)C(c1ccccc1)c1ccccc1` (centres unmarked) [Compound 24]: 670 nM and 10%.
Consider `O=C(CCCc1cccs1)NCC(c1ccccc1)C(c1ccccc1)c1ccccc1` (centres unmarked) [Compound 37], for which the IC50 in assay [1] amounted to 500 nM. In addition, the “hPR % inh 10 μM” value in assay [2] came to 4%.
The matching figures for `CCCC(=O)NCC1(c2ccccc2)CC1(c1ccccc1)c1ccccc1` (centres unmarked) [Compound 83]: 573 nM and 45%.
Regarding `O=C(NCC1(c2ccccc2)CC1(c1ccccc1)c1ccccc1)Oc1ccccc1` (centres unmarked) [Compound 96], the IC50 in assay [1] worked out at 927 nM. In assay [2], the “hPR % inh 10 μM” value is reported as 9.9%.
The corresponding values for `O=C(Cc1ccsc1)NCC(c1ccccc1)C(c1ccccc1)c1ccccc1` (centres unmarked) [Compound 36] are 25 nM and 22%.
For the compound `O=C(Cc1ccccc1Cl)NCC(c1ccccc1)C(c1ccccc1)c1ccccc1` (centres unmarked) [Compound 2], the IC50 in assay [1] was determined as 134 nM. Moreover, in assay [2], the “hPR % inh 10 μM” value is listed as −23%.
As to `O=C(CCc1c[nH]c2ccccc12)NCC(c1ccccc1)C(c1ccccc1)c1ccccc1` (centres unmarked) [Compound 48], the IC50 in assay [1] stood at 605 nM. Also, in assay [2], the “hPR % inh 10 μM” value stood at 19%.
The corresponding values for `O=C(Cc1ccc(Cl)cc1)NCC(c1ccccc1)C(c1ccccc1)c1ccccc1` (centres unmarked) [Compound 3] are 480 nM and 4%.
